Test results from ChEMBL document CHEMBL3868596, “A new target for Parkinson's disease: Small molecule SERCA activator CDN1163 ameliorates dyskinesia in 6-OHDA-lesioned rats” (Bioorg Med Chem, 2017).
Activity calls are given as the source filed them. No cut-off for these calls is given here.

Legend:
[1] = tested on: Rattus norvegicus; assay: Antiakinetic activity in 6-OHDA induced unilaterally lesioned Wistar rat Parkinson's disease model assessed as increase in double contacts at 10 mg/kg, ip qd administered 5 days prior to 6-OHDA-challenge measured on day 11 post 1.5 hr of last dosage by cylinder test; assay type: functional, organism-based
[2] = tested on: Rattus norvegicus; assay: (§1) Antiakinetic activity in 6-OHDA induced unilaterally lesioned Wistar rat Parkinson's disease model assessed as restoration of 6-OHDA-induced decrease in number of adjusting steps in contralateral forelimb administered ip qd for 5 days prior to 6-OHDA-challenge measured on day 11 post 1 hr of last dosage; assay type: functional, organism-based
[3] = tested on: Rattus norvegicus; assay: (§2) Antiakinetic activity in 6-OHDA induced unilaterally lesioned Wistar rat Parkinson's disease model assessed as reduction in 6-OHDA-induced increase in initiation time to move towards plane surface administered ip qd for 5 days prior to 6-OHDA-challenge measured 1 hr post compound treatment on day 11 relative to non-lesioned control; assay type: functional, organism-based
[4] = Metabolic stability in mouse plasma measured after 1 hr; assay type: ADME, cell-free; details: read-out: Stability
[5] = Permeability of the compound by PAMPA; assay type: ADME
[6] = Ratio of drug level in mouse brain to plasma at 10 mg/kg, ip measured after 1 hr; assay type: ADME, organism-based; details: read-out: BPR
[7] = tested on: Rattus norvegicus; assay: as §1, with “forelimb at 10 mg/kg,” for “forelimb administered”, “qd administered” for “qd for”; assay type: functional, organism-based
[8] = organism: Homo sapiens; assay: Activation of SERCA (unknown origin)
[9] = organism: Rattus norvegicus; assay: Cytoprotection against thapsigargin-induced ER-stress in rat CSM14.1 cells assessed as increase in cell viability preincubated for 2 hrs followed by thapsigargin addition measured after 20 hrs by ATPlite assay relative to thapsigargin treated control; assay type: functional, cell-based
[10] = AUC in mouse at 2 mg/kg, po or 1 mg/kg, iv; assay type: ADME, organism-based; details: in vivo
[11] = Tmax in mouse at 2 mg/kg, po or 1 mg/kg, iv; assay type: ADME, organism-based; details: in vivo
[12] = tested on: Rattus norvegicus; assay: Antiakinetic activity in 6-OHDA induced unilaterally lesioned Wistar rat Parkinson's disease model assessed as assessed as increase in double contacts compound administered ip, qd for 5 days prior to 6-OHDA-challenge measured on day 11 post 1.5 hr of last dosage by cylinder test; assay type: functional
[13] = tested on: HeLa; assay: Activation of SERCA in human HeLa cells expressing YFP/CFP fused cameleon assessed as reduction in thapsigargin-induced decrease in endoplasmic reticulum calcium level by inverted wide-field fluorescence microscopy; assay type: cell-based
[14] = Cmax in mouse at 2 mg/kg, po or 1 mg/kg, iv; assay type: ADME, organism-based; details: in vivo
[15] = Cytoprotection against thapsigargin-induced ER-stress in rat CSM14.1 cells assessed as cell viability at 15 ug/ml preincubated for 2 hrs followed by thapsigargin addition measured after 20 hrs by ATPlite assay relative to thapsigargin treated control; assay type: functional; details: read-out: Activity
[16] = tested on: Rattus norvegicus; assay: as §2, with “at 10 mg/kg,” for “administered”, “administered” for “for”; assay type: functional, organism-based
[17] = Metabolic stability in human liver microsomes measured after 1 hr; assay type: ADME; details: read-out: Stability

Row | remaining at 1 h [4] | permeability [5] | Kp at 1 h [6] | Activity [8] | AUC [10] | Tmax [11] | Cmax [14] | remaining at 1 h [17] | Compound | Activity [1] | Activity [2] | Activity [3] | Activity [7] | Activity [9] | Activity [12] | Activity [13] | viability at 15 µg/mL [15] | Activity [16]
1 |  |  |  |  |  |  |  |  | N[C@@H](Cc1ccc(O)c(O)c1)C(=O)O | Active | Active | Active |  |  |  |  |  | 
2 | 94% | Permeable | 2.83 to 3 | Active | 0.41 µM·h | 40.2 min | 260 nM | 58% | Cc1ccc2cccc(NC(=O)c3ccc(OC(C)C)cc3)c2n1 |  |  |  | Active | Dose-dependent effect | Active | Active | 100% | Active
